Compound: CN1CCN(CC1)C2=CC(=C(C=C2)NC3=NC(=C(S3)C(=O)C4=C(C=CC=C4Cl)Cl)N)OC [XMD14-99] + CC(=O)c1c(C)c2cnc(Nc3ccc(N4CCNCC4)cn3)nc2n(C2CCCC2)c1=O [Palbociclib] (partner 0.5 µM)
Assay: relative viability (nuclei count vs DMSO), 5 days (fraction); higher = more cells survive
Settings: first compound 0.08 µM
In short: (§1)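 Nuclei were stained with Hoechst during a one-step fixation (final 0.05% Triton X-100, 1% formaldehyde, 1 ug/ml Hoechst) carried out 5 days after dosing, then counted on 4× images. The cells, lung cancer lines in 1536-well plates, had been dosed by pin tool the day after seeding with one drug alone or a fixed anchor-drug dose plus five library-drug doses (not always all listed) in √10 steps. Relative viability is the nuclei count in treated wells divided by that in vehicle wells, and each value is the median of duplicate plates.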

Row | Cell Line | relative viability
1 | A-427 | 0.515
2 | NCI-H460 | 0.156
3 | NCI-H727 | 0.691
4 | NCI-H1734 | 0.355
5 | NCI-H520 | 0.174
6 | NCI-H2405 | 0.512
7 | SW 1573 | 0.342
8 | NCI-H1395 | 0.58
9 | 201T | 0.351
10 | NCI-H1915 | 0.555
11 | HCC-827 | 0.506
12 | LXF-289 | 0.625
13 | NCI-H2347 | 0.439
14 | NCI-H650 | 0.341
15 | CAL-12T | 0.532
16 | NCI-H1651 | 0.535

Row | Cell Line | relative viability
17 | EPLC-272H | 0.306
18 | NCI-H23 | 0.519
19 | NCI-H1792 | 0.64
20 | NCI-H1355 | 0.393
21 | NCI-H322M | 0.449
22 | NCI-H1437 | 0.307
23 | NCI-H1755 | 0.477
24 | NCI-H2085 | 0.453
25 | HCC-15 | 0.733
26 | NCI-H1793 | 0.286
27 | PC-3 [JPC-3] | 0.574
28 | EKVX | 0.358
29 | LC-2-ad | 0.525
30 | NCI-H1944 | 0.32
31 | NCI-H1975 | 0.597

Same assay, conditions: first compound 0.8 µM

Row | Cell Line | relative viability
32 | A-427 | 0.554
33 | NCI-H460 | 0.21
34 | NCI-H727 | 0.652
35 | NCI-H1734 | 0.338
36 | NCI-H520 | 0.186
37 | NCI-H2405 | 0.578
38 | SW 1573 | 0.44
39 | NCI-H1395 | 0.678
40 | 201T | 0.368
41 | NCI-H1915 | 0.552
42 | HCC-827 | 0.406
43 | LXF-289 | 0.571
44 | NCI-H2347 | 0.43
45 | NCI-H650 | 0.337
46 | CAL-12T | 0.43
47 | NCI-H1651 | 0.535

Row | Cell Line | relative viability
48 | EPLC-272H | 0.299
49 | NCI-H23 | 0.541
50 | NCI-H1792 | 0.697
51 | NCI-H1355 | 0.419
52 | NCI-H322M | 0.523
53 | NCI-H1437 | 0.311
54 | NCI-H1755 | 0.458
55 | NCI-H2085 | 0.447
56 | HCC-15 | 0.765
57 | NCI-H1793 | 0.316
58 | PC-3 [JPC-3] | 0.501
59 | EKVX | 0.403
60 | LC-2-ad | 0.446
61 | NCI-H1944 | 0.36
62 | NCI-H1975 | 0.614

Same assay, conditions: first compound 2.53 µM

Row | Cell Line | relative viability
63 | A-427 | 0.488
64 | NCI-H460 | 0.164
65 | NCI-H727 | 0.609
66 | NCI-H1734 | 0.379
67 | NCI-H520 | 0.239
68 | NCI-H2405 | 0.557
69 | SW 1573 | 0.421
70 | NCI-H1395 | 0.688
71 | 201T | 0.371
72 | NCI-H1915 | 0.516
73 | HCC-827 | 0.451
74 | LXF-289 | 0.55
75 | NCI-H2347 | 0.4
76 | NCI-H650 | 0.34
77 | CAL-12T | 0.485
78 | NCI-H1651 | 0.535

Row | Cell Line | relative viability
79 | EPLC-272H | 0.324
80 | NCI-H23 | 0.529
81 | NCI-H1792 | 0.631
82 | NCI-H1355 | 0.383
83 | NCI-H322M | 0.472
84 | NCI-H1437 | 0.252
85 | NCI-H1755 | 0.474
86 | NCI-H2085 | 0.462
87 | HCC-15 | 0.733
88 | NCI-H1793 | 0.314
89 | PC-3 [JPC-3] | 0.59
90 | EKVX | 0.377
91 | LC-2-ad | 0.466
92 | NCI-H1944 | 0.328
93 | NCI-H1975 | 0.618

Same assay, conditions: first compound 8 µM

Row | Cell Line | relative viability
94 | A-427 | 0.452
95 | NCI-H460 | 0.12
96 | NCI-H727 | 0.544
97 | NCI-H1734 | 0.355
98 | NCI-H520 | 0.222
99 | NCI-H2405 | 0.503
100 | SW 1573 | 0.36
101 | NCI-H1395 | 0.602
102 | 201T | 0.333
103 | NCI-H1915 | 0.517
104 | HCC-827 | 0.446
105 | LXF-289 | 0.575
106 | NCI-H2347 | 0.416
107 | NCI-H650 | 0.38
108 | CAL-12T | 0.413
109 | NCI-H1651 | 0.522

Row | Cell Line | relative viability
110 | EPLC-272H | 0.347
111 | NCI-H23 | 0.454
112 | NCI-H1792 | 0.598
113 | NCI-H1355 | 0.331
114 | NCI-H322M | 0.514
115 | NCI-H1437 | 0.221
116 | NCI-H1755 | 0.476
117 | NCI-H2085 | 0.41
118 | HCC-15 | 0.629
119 | NCI-H1793 | 0.284
120 | PC-3 [JPC-3] | 0.538
121 | EKVX | 0.361
122 | LC-2-ad | 0.487
123 | NCI-H1944 | 0.28
124 | NCI-H1975 | 0.448

Compound: CN1CCN(CC1)C2=CC(=C(C=C2)NC3=NC(=C(S3)C(=O)C4=C(C=CC=C4Cl)Cl)N)OC [XMD14-99] + COc1cccc2cc(-c3nc([C@H]4CC[C@H](C(=O)O)CC4)n4ncnc(N)c34)[nH]c12 [OSI-027] (partner 0.5 µM)
Assay: as above
Settings: first compound 0.08 µM
In short: as §1

Row | Cell Line | relative viability
125 | A-427 | 0.457
126 | NCI-H460 | 0.626
127 | NCI-H727 | 0.617
128 | NCI-H1734 | 0.556
129 | NCI-H520 | 0.251
130 | NCI-H2405 | 0.593
131 | SW 1573 | 0.629
132 | NCI-H1395 | 0.687
133 | 201T | 0.748
134 | NCI-H1915 | 0.629
135 | HCC-827 | 0.726
136 | LXF-289 | 0.839
137 | NCI-H2347 | 0.401
138 | NCI-H650 | 0.544
139 | CAL-12T | 0.492
140 | NCI-H1651 | 0.815

Row | Cell Line | relative viability
141 | EPLC-272H | 0.311
142 | NCI-H23 | 0.699
143 | NCI-H1792 | 0.71
144 | NCI-H1355 | 0.395
145 | NCI-H322M | 0.56
146 | NCI-H1437 | 0.892
147 | NCI-H1755 | 0.709
148 | NCI-H2085 | 0.725
149 | HCC-15 | 0.606
150 | NCI-H1793 | 0.269
151 | PC-3 [JPC-3] | 0.769
152 | EKVX | 0.653
153 | LC-2-ad | 0.845
154 | NCI-H1944 | 0.382
155 | NCI-H1975 | 0.825

Same assay, conditions: first compound 0.8 µM

Row | Cell Line | relative viability
156 | A-427 | 0.421
157 | NCI-H460 | 0.626
158 | NCI-H727 | 0.493
159 | NCI-H1734 | 0.524
160 | NCI-H520 | 0.262
161 | NCI-H2405 | 0.606
162 | SW 1573 | 0.758
163 | NCI-H1395 | 0.639
164 | 201T | 0.729
165 | NCI-H1915 | 0.548
166 | HCC-827 | 0.68
167 | LXF-289 | 0.84
168 | NCI-H2347 | 0.349
169 | NCI-H650 | 0.58
170 | CAL-12T | 0.68
171 | NCI-H1651 | 0.691

Row | Cell Line | relative viability
172 | EPLC-272H | 0.32
173 | NCI-H23 | 0.616
174 | NCI-H1792 | 0.686
175 | NCI-H1355 | 0.367
176 | NCI-H322M | 0.581
177 | NCI-H1437 | 0.842
178 | NCI-H1755 | 0.712
179 | NCI-H2085 | 0.815
180 | HCC-15 | 0.622
181 | NCI-H1793 | 0.26
182 | PC-3 [JPC-3] | 0.701
183 | EKVX | 0.72
184 | LC-2-ad | 0.866
185 | NCI-H1944 | 0.44
186 | NCI-H1975 | 0.822

Same assay, conditions: first compound 2.53 µM

Row | Cell Line | relative viability
187 | A-427 | 0.401
188 | NCI-H460 | 0.646
189 | NCI-H727 | 0.584
190 | NCI-H1734 | 0.55
191 | NCI-H520 | 0.231
192 | NCI-H2405 | 0.607
193 | SW 1573 | 0.599
194 | NCI-H1395 | 0.654
195 | 201T | 0.828
196 | NCI-H1915 | 0.487
197 | HCC-827 | 0.655
198 | LXF-289 | 0.819
199 | NCI-H2347 | 0.378
200 | NCI-H650 | 0.464
201 | CAL-12T | 0.747
202 | NCI-H1651 | 0.622

Row | Cell Line | relative viability
203 | EPLC-272H | 0.282
204 | NCI-H23 | 0.615
205 | NCI-H1792 | 0.657
206 | NCI-H1355 | 0.337
207 | NCI-H322M | 0.492
208 | NCI-H1437 | 0.804
209 | NCI-H1755 | 0.668
210 | NCI-H2085 | 0.624
211 | HCC-15 | 0.638
212 | NCI-H1793 | 0.232
213 | PC-3 [JPC-3] | 0.638
214 | EKVX | 0.655
215 | LC-2-ad | 0.771
216 | NCI-H1944 | 0.358
217 | NCI-H1975 | 0.653

Same assay, conditions: first compound 8 µM

Row | Cell Line | relative viability
218 | A-427 | 0.311
219 | NCI-H460 | 0.269
220 | NCI-H727 | 0.383
221 | NCI-H1734 | 0.437
222 | NCI-H520 | 0.206
223 | NCI-H2405 | 0.5
224 | SW 1573 | 0.493
225 | NCI-H1395 | 0.584
226 | 201T | 0.494
227 | NCI-H1915 | 0.415
228 | HCC-827 | 0.608
229 | LXF-289 | 0.616
230 | NCI-H2347 | 0.276
231 | NCI-H650 | 0.42
232 | CAL-12T | 0.377
233 | NCI-H1651 | 0.531

Row | Cell Line | relative viability
234 | EPLC-272H | 0.263
235 | NCI-H23 | 0.496
236 | NCI-H1792 | 0.413
237 | NCI-H1355 | 0.292
238 | NCI-H322M | 0.372
239 | NCI-H1437 | 0.68
240 | NCI-H1755 | 0.517
241 | NCI-H2085 | 0.42
242 | HCC-15 | 0.463
243 | NCI-H1793 | 0.199
244 | PC-3 [JPC-3] | 0.541
245 | EKVX | 0.586
246 | LC-2-ad | 0.679
247 | NCI-H1944 | 0.278
248 | NCI-H1975 | 0.535

Compound: CN1CCN(CC1)C2=CC(=C(C=C2)NC3=NC(=C(S3)C(=O)C4=C(C=CC=C4Cl)Cl)N)OC [XMD14-99] + N=C(N)NC(=N)NCCc1ccccc1 [Phenformin] (partner 250 µM)
Assay: as above
Settings: first compound 0.08 µM
In short: as §1

Row | Cell Line | relative viability
249 | A-427 | 0.431
250 | NCI-H460 | 0.517
251 | NCI-H727 | 0.423
252 | NCI-H1734 | 0.348
253 | NCI-H520 | 0.603
254 | NCI-H2405 | 0.379
255 | SW 1573 | 0.357
256 | NCI-H1395 | 0.471
257 | 201T | 0.449
258 | NCI-H1915 | 0.369
259 | HCC-827 | 0.406
260 | LXF-289 | 0.52
261 | NCI-H2347 | 0.529
262 | NCI-H650 | 0.497
263 | CAL-12T | 0.597

From the supplement of paper PMC10307832
